pIC50: −log10 of the molar value. Counter-ions that a name gives are not always drawn.
Target: T1, G9a (Homo sapiens, UniProt Q96KQ7)
T1 sequence (Q96KQ7 1-1210): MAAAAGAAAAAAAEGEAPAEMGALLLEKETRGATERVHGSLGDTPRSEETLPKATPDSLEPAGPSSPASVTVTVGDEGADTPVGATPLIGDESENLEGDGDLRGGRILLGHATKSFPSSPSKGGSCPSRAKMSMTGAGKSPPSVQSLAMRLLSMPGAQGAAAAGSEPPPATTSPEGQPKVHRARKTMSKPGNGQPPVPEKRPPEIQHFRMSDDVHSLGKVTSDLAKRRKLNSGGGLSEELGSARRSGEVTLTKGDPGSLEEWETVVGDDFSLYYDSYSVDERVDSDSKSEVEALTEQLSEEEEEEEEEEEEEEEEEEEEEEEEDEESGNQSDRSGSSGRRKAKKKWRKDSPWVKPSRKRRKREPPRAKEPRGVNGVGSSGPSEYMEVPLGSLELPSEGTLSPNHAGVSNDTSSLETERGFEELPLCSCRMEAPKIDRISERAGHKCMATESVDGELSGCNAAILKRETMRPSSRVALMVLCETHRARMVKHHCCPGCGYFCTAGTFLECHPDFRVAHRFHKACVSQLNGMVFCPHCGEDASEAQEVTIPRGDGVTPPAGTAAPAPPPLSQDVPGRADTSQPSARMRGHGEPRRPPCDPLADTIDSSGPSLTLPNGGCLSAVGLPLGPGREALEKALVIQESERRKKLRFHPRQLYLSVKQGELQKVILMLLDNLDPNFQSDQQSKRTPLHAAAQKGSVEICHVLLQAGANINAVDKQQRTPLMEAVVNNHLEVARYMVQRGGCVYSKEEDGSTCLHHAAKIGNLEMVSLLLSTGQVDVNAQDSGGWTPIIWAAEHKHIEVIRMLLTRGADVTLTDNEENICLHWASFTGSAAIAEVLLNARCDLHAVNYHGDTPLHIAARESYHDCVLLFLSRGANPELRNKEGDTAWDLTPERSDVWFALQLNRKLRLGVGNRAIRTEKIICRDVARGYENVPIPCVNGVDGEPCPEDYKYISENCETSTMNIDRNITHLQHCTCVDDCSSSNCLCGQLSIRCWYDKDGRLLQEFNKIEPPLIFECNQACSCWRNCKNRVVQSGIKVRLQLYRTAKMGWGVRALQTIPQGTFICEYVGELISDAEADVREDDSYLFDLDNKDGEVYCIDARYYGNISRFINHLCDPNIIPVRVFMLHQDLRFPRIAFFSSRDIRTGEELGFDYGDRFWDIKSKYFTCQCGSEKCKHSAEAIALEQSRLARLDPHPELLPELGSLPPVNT
Test: G9a AlphaLISA enzymatic activity assay
Format: biochemical
Settings: 0.15 nM G9a, 10 uM S-adenosyl-methionine, 100 nM biotinylated histone 3 peptide (1-21), 1 h room temperature
Description: The G9a AlphaLISA assay was used to detect the methyl modifications of a biotinylated histone H3 peptide by the compounds. These modifications are done by the histone methyl transferase activity of the G9a enzyme. The assay consists of reading a chemiluminescent signal at 615 nm; this signal is generated by a laser excitation at 680 nm that transfers a reactive singlet oxygen between the donor beads and acceptor beads. Donor beads are streptavidin conjugated and bind to the biotin on the peptide. Acceptor beads are conjugated with an antibody that recognizes the specific G9a methyl mark on the peptide. If there is a methyl mark on the peptide, the acceptor beads will bind to the peptide. Upon binding, the acceptor beads will be in close proximity (<200 nm) of the donor beads and when the donor beads are excited, the transfer of the oxygen can occur and a strong signal will be generated. If there is no methyl mark, the interaction between beads will not occur and signal will be at background levels.
For the assay, the following buffer was used to set up reactions: 50 mM Tris-HCl pH9, 50 mM NaCl, 0.01% Tween-20 and 1 mM DTT (added fresh prior to starting the reactions). The assay is set up by adding a final concentration of 0.15 nM G9a, 10 uM S-adenosyl-methionine and, 100 nM biotinylated histone 3 peptide (1-21). The reaction is incubated at room temperature for 1 h, and subsequently quenched by the addition of the acceptor beads (anti-H3k9me2 AlphaLISA acceptor beads, PerkinElmer #AL117) at a final concentration of 20 ug/mL. The acceptor beads are incubated for 1 h. After 1 h, the donor beads are added at a final concentration of 20 ug/mL (Alpha Streptavidin donor beads, PerkinElmer #6760002). Donor beads are incubated for 0.5 h. Both donor and acceptor beads are resuspended in AlphaLISA 5× Epigenetics Buffer 1 Kit (PerkinElmer #AL008) prior to addition to the reaction. All manipulations and incubations with the donor and acceptor beads are done in subdued light. Signal is detected in an EnVision plate reader in Alpha mode (See ACS Med Chem Lett. 2014 Jan. 2; 5(2):205-9)
Percent inhibition was calculated for each compound dilution and the concentration that produced 50% inhibition was calculated. This value is presented as the IC50.

SMILES	pIC50
COc1cc2c(cc1OCCCN1CCCC1)[nH]c1ccncc12 [Compound 6, 1-[3-({8-methoxy-5H-pyrido[4,3-b]indol-7-yl}oxy)propyl]pyrrolidine]	8.49
COc1cc2c(cc1OCCCN1CCCC1)[nH]c1ncccc12 [Compound 7, 1-[3-({6-methoxy-9H-pyrido[2,3-b]indol-7-yl}oxy)propyl]pyrrolidine]	6.55
COc1cc2c(cc1OCCCN1CCCC1)[nH]c1cc(N)ncc12 [Compound 8, 8-methoxy-7-[3-(pyrrolidin-1-yl)propoxy]-5H-pyrido[4,3-b]indol-3-amine]	8.28
COc1cc2c(cc1OCCCN1CCCC1)[nH]c1ccnc(F)c12 [Compound 9, 1-[3-({1-fluoro-8-methoxy-5H-pyrido[4,3-b]indol-7-yl}oxy)propyl]pyrrolidine]	6.23
COc1cc2c(cc1OCCCN1CCCC1)[nH]c1cc(N)nc(C)c12 [Compound 10, 8-methoxy-1-methyl-7-[3-(pyrrolidin-1-yl)propoxy]-5H-pyrido[4,3-b]indol-3-amine]	8.35
COc1cc2c(cc1OCCCN1CCCC1)[nH]c1ccnc(N3CC[C@H](O)C3)c12 [Compound 11, (3S)-1-{8-methoxy-7-[3-(pyrrolidin-1-yl)propoxy]-5H-pyrido[4,3-b]indol-1-yl}pyrrolidin-3-ol]	8.09
COc1cc2c(cc1OCCCN1CCCC1)[nH]c1ccnc(C3CC3)c12 [Compound 12, 1-[3-({1-cyclopropyl-8-methoxy-5H-pyrido[4,3-b]indol-7-yl}oxy)propyl]pyrrolidine]	8.52 to 9.00
COc1cc2c(cc1OCCCN1CCCC1)[nH]c1ccnc(N3CC[C@@H](O)C3)c12 [Compound 13, (3R)-1-{8-methoxy-7-[3-(pyrrolidin-1-yl)propoxy]-5H-pyrido[4,3-b]indol-1-yl}pyrrolidin-3-ol]	7.47
COC[C@H](C)Nc1nccc2[nH]c3cc(OCCCN4CCCC4)c(OC)cc3c12 [Compound 14, 8-methoxy-N-[(2S)-1-methoxypropan-2-yl]-7-[3-(pyrrolidin-1-yl)propoxy]-5H-pyrido[4,3-b]indol-1-amine]	8.19
COc1cc2c(cc1OCCCN1CCCC1)[nH]c1ccnc(N3CCCC3)c12 [Compound 15, 1-{8-methoxy-7-[3-(pyrrolidin-1-yl)propoxy]-5H-pyrido[4,3-b]indol-1-yl}pyrrolidine]	8.48
COc1cc2c(cc1OCCCN1CCCC1)[nH]c1ccnc(N3CCC(O)CC3)c12 [Compound 16, 1-{8-methoxy-7-[3-(pyrrolidin-1-yl)propoxy]-5H-pyrido[4,3-b]indol-1-yl}piperidin-4-ol]	7.21
COc1cc2c(cc1OCCCN1CCCC1)[nH]c1ccnc(N3CCOCC3)c12 [Compound 17, 4-{8-methoxy-7-[3-(pyrrolidin-1-yl)propoxy]-5H-pyrido[4,3-b]indol-1-yl}morpholine]	6.43
COc1cc2c(cc1OCCCN1CCCC1)[nH]c1ccnc(N3CC(O)C3)c12 [Compound 18, 1-{8-methoxy-7-[3-(pyrrolidin-1-yl)propoxy]-5H-pyrido[4,3-b]indol-1-yl}azelidin-3-ol]	7.92
COc1cc2c(cc1OCCCN1CCCC1)[nH]c1ccnc(N3CC4CCC(C3)O4)c12 [Compound 19, 3-{8-methoxy-7-[3-(pyrrolidin-1-yl)propoxy]-5H-pyrido[4,3-b]indol-1-yl}-8-oxa-3-azabicyclo[3.2.1]octane]	6.52
CCOCCNc1nccc2[nH]c3cc(OCCCN4CCCC4)c(OC)cc3c12 [Compound 20, N-(2-ethoxyethyl)-8-methoxy-7-[3-(pyrrolidin-1-yl)propoxy]-5H-pyrido[4,3-b]indol-1-amine]	8.15
CCCc1nccc2[nH]c3cc(OCCCN4CCCC4)c(OC)cc3c12 [Compound 21, 1-[3-({8-methoxy-1-propyl-5H-pyrido[4,3-b]indol-7-yl}oxy)-propyl]pyrrolidine]	8.48
COc1cc2c(cc1OCCCN1CCCC1)[nH]c1ncncc12 [Compound 22, 1-[3-({6-methoxy-9H-pyrimido-[4,5-b]indol-7-yl}oxy)propyl]-pyrrolidine]	6.24
COc1cc2c(cc1OCCCN1CCCC1)[nH]c1ccnc(-c3ccncc3)c12 [Compound 23, 8-methoxy-1-(pyridin-4-yl)-7-(3-(pyrrolidin-1-yl)propoxy)-5H-pyrido[4,3-b]indole]	7.00
COc1cc2c(cc1OCCCN1CCCC1)[nH]c1ccnc(-c3cccnc3)c12 [Compound 24, 8-methoxy-1-(pyridin-3-yl)-7-(3-(pyrrolidin-1-yl)propoxy)-5H-pyrido[4,3-b]indole]	7.03
COc1cc2c(cc1OCCCN1CCCC1)[nH]c1ccnc(-c3ccccn3)c12 [Compound 25, 8-methoxy-1-(pyridin-2-yl)-7-(3-(pyrrolidin-1-yl)propoxy)-5H-pyrido[4,3-b]indole]	6.85
COc1c(OCCCN2CCCC2)ccc2c1[nH]c1cccnc12 [Compound 26, 1-[3-({6-methoxy-5H-pyrido[3,2-b]indol-7-yl}oxy)propyl]pyrrolidine hydrochloride]	6.60
COc1cc2c(cc1OCCCN1CCCC1)[nH]c1cccnc12 [Compound 27, 1-[3-({8-methoxy-5H-pyrido[3,2-b]indol-7-yl}oxy)propyl]pyrrolidine hydrochloride]	6.82
COc1cc2c(cc1OCCCN1CCCC1)[nH]c1cnccc12 [Compound 28, 1-[3-({6-methoxy-9H-pyrido[3,4-b]indol-7-yl}oxy)propyl]pyrrolidine hydrochloride]	7.22
COc1cc2c(cc1OCCCN1CCCC1)[nH]c1ccnc(C)c12 [Compound 29, 1-[3-({8-methoxy-1-methyl-5H-pyrido[4,3-b]indol-7-yl}oxy)propyl]pyrrolidine hydrochloride]	8.92
COc1cc2c(cc1OCCCN1CCCC1)[nH]c1ccncc12 [Compound 31, 1-[3-({8-methoxy-5H-pyrido[4,3-b]indol-7-yl}oxy)propyl]pyrrolidine hydrochloride]	8.44
COc1cc2c(cc1OCCCN1CCCC1)[nH]c1nc(N)ccc12 [Compound 33, 6-methoxy-7-[3-(pyrrolidin-1-yl)propoxy]-9H-pyrido[2,3-b]indol-2-amine hydrochloride]	6.49
COc1cc2c(cc1OCCCN1CCCC1)[nH]c1ccnc(N3CCCC3)c12 [Compound 39, 1-{8-methoxy-7-[3-(pyrrolidin-1-yl)propoxy]-5H-pyrido[4,3-b]indol-1-yl}pyrrolidine]	8.24
COc1cc2c(cc1OCCCN1CCCC1)[nH]c1ccnc(C3CC3)c12 [Compound 43, 1-[3-({1-cyclopropyl-8-methoxy-5H-pyrido[4,3-b]indol-7-yl}oxy)propyl]pyrrolidine]	8.89
COc1cc2c(cc1OCCCN1CCCC1)[nH]c1cncnc12 [Compound 44, 1-[3-({8-methoxy-5H-pyrimido[5,4-b]indol-7-yl}oxy)propyl]pyrrolidine]	6.77

Reference: patent publication US11111243B2, “Azaindole compounds as histone methyltransferase inhibitors” (GLOBAL BLOOD THERAPEUTICS, INC., priority 2017, dated 2021)
